Test results published in PubChem BioAssay (NCI).
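Briefly, cells in 96-well plates were exposed to five compound concentrations for 48 h, and endpoints were estimated by linear interpolation. Definition used: TGI = concentration required for complete inhibition of growth.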

Columns and labels:
Test in all cases: NCI anticancer screen, dose series, 48 h
[1] = tested on: OVCAR-3 ovarian
[2] = tested on: CAKI-1 renal
[3] = tested on: KM12 colon
[4] = tested on: 786-0 renal
[5] = tested on: UACC-62 melanoma
[6] = tested on: NCI-H522 lung
[7] = tested on: HL-60(TB) leukemia
[8] = tested on: CCRF-CEM leukemia
[9] = tested on: IGROV1 ovarian
[10] = tested on: EKVX NSCLC
[11] = tested on: SK-MEL-28 melanoma
[12] = tested on: SF-539 CNS
[13] = tested on: SF-295 CNS
[14] = tested on: SK-MEL-2 melanoma
[15] = tested on: DMS 273 small cell lung
[16] = tested on: SNB-19 CNS
[17] = tested on: TK-10 renal
[18] = tested on: DLD-1 colon
[19] = tested on: RXF 393 renal
[20] = tested on: SNB-78 CNS
[21] = tested on: ACHN renal
[22] = tested on: OVCAR-5 ovarian
[23] = tested on: SN12C renal
[24] = tested on: LXFL 529 NSCLC
[25] = tested on: OVCAR-8 ovarian
[26] = tested on: U251 CNS
[27] = tested on: DMS 114 small cell lung
[28] = tested on: NCI-H226 lung
[29] = tested on: LOX IMVI melanoma
[30] = tested on: SW-620 colon
[31] = tested on: NCI-H23 lung
[32] = tested on: KM20L2 colon
[33] = tested on: HCC-2998 colon
[34] = tested on: A498 renal
[35] = tested on: OVCAR-4 ovarian
[36] = tested on: MOLT-4 leukemia
[37] = tested on: RPMI-8226 leukemia
[38] = tested on: HT29 colon
[39] = tested on: SF-268 CNS
[40] = tested on: HCT-116 colon
[41] = tested on: M14 melanoma
[42] = tested on: UACC-257 melanoma
[43] = tested on: COLO 205 colon
[44] = tested on: A549 NSCLC
[45] = tested on: K-562 leukemia
[46] = tested on: HCT-15 colon
[47] = tested on: SR leukemia
[48] = tested on: UO-31 renal
[49] = tested on: HOP-62 NSCLC
[50] = tested on: NCI-H460 lung

Compound `O=c1nc2[nH]nc(-c3ccccc3)c2n[nH]1` has a TGI [1] greater than 100 µM, a TGI [2] greater than 100 µM and a TGI [3] greater than 100 µM. For the same compound, the TGI [4] was 52 µM, the TGI [5] was greater than 100 µM and the TGI [6] was greater than 100 µM. It also gave a TGI [7] greater than 100 µM, a TGI [8] greater than 100 µM and a TGI [9] greater than 100 µM. It also gave a TGI [10] greater than 100 µM, a TGI [11] greater than 100 µM and a TGI [12] of 36.4 µM. It also gave a TGI [13] greater than 100 µM, a TGI [14] greater than 100 µM and a TGI [15] greater than 100 µM. It also gave a TGI [16] greater than 100 µM, a TGI [17] greater than 100 µM and a TGI [18] greater than 100 µM. It also gave a TGI [19] greater than 100 µM, a TGI [20] greater than 100 µM and a TGI [21] greater than 100 µM. The TGI [22] was greater than 100 µM, the TGI [23] was greater than 100 µM and the TGI [24] was greater than 100 µM. It also gave a TGI [25] greater than 100 µM, a TGI [26] greater than 100 µM and a TGI [27] greater than 100 µM. The TGI [28] was greater than 100 µM, the TGI [29] was greater than 100 µM and the TGI [30] was greater than 100 µM. The TGI [31] was greater than 100 µM, the TGI [32] was greater than 100 µM and the TGI [33] was greater than 100 µM. For the same compound, the TGI [34] was greater than 100 µM, the TGI [35] was greater than 100 µM and the TGI [36] was greater than 100 µM. The TGI [37] was greater than 100 µM, the TGI [38] was greater than 100 µM and the TGI [39] was greater than 100 µM. It also gave a TGI [40] greater than 100 µM, a TGI [41] greater than 100 µM and a TGI [42] greater than 100 µM. The TGI [43] was greater than 100 µM, the TGI [44] was greater than 100 µM and the TGI [45] was greater than 100 µM. For the same compound, the TGI [46] was greater than 100 µM, the TGI [47] was greater than 100 µM and the TGI [48] was greater than 100 µM. For the same compound, the TGI [49] was greater than 100 µM and the TGI [50] was greater than 100 µM.
